Patent US20250026708A1, “PROCESS FOR PREPARATION OF TRIHEPTANOIN” (Navinta, LLC, priority 2023, published 2025)

Assay: Stability study of triheptanoin on storage (acid value, diester impurities, purity by GC and/or HPLC)
Assay type: physicochemical
Protocol: The stability data of the present invention at different stability condition(s) from initial to up to 6 (six) months is described below in Table-I: As shown in Table-I, two batches (Example 16 & Example 17) of triheptanoin prepared by the present method with acid values of […] about 0.2 mg KOH/gm were studied for stability. The samples were kept at 25° C./60% RH, 40° C./75% RH for up to 6 months and at 50° C. for up to 3 months. During the stability study, the inventors of the present invention have focused on % of 1,2-Diester Impurity, % of 1,3-Diester Impurity and purity of triheptanoin.

[1] = 25° C./60% RH, 3 M, listed as Example 17
[2] = 25° C./60% RH, 6 M, listed as Example 17
[3] = 25° C./60% RH, 40° C./75% RH up to 6 months, 50° C. up to 3 months, acid value greater than about 0.2 mg KOH/gm
[4] = 40° C./75% RH, 1 M, listed as Example 17
[5] = 40° C./75% RH, 2 M, listed as Example 17
[6] = 40° C./75% RH, 3 M, listed as Example 17
[7] = 40° C./75% RH, 6 M, listed as Example 17
[8] = 50° C., 1 M, listed as Example 17
[9] = 50° C., 2 M, listed as Example 17
[10] = 50° C., 3 M, listed as Example 17

With `CCCCCCC(=O)OCC(COC(=O)CCCCCC)OC(=O)CCCCCC` [Example 16, heptanoic acid, 1,1′,1″-(1,2,3 propanetriyl) ester] the “1,2 Diester Impurity (NMT 0.05%)” value (25° C./60% RH, 1 M) was 0.004%, the “1,3 Diester Impurity (NMT 0.05%)” value (25° C./60% RH, 1 M) was 0.002% and the Acid value (25° C./60% RH, 1 M) was 0.24 mg KOH/gm. For the same molecule, the Triheptanoin purity (25° C./60% RH, 1 M) was 99.83%, the Triheptanoin purity (25° C./60% RH, 1 M, listed as Example 17) was 99.82% and the “1,2 Diester Impurity (NMT 0.05%)” value (25° C./60% RH, 3 M) was 0.007%. The “1,3 Diester Impurity (NMT 0.05%)” value (25° C./60% RH, 3 M) was 0.002%, the Acid value (25° C./60% RH, 3 M) was 0.23 mg KOH/gm and the Triheptanoin purity (25° C./60% RH, 3 M) was 99.82%. The “1,2 Diester Impurity (NMT 0.05%)” value [1] was 0.004%, the “1,3 Diester Impurity (NMT 0.05%)” value [1] was 0.003% and the Acid value [1] was 0.22 mg KOH/gm. For the same molecule, the Triheptanoin purity [1] was 99.84%, the “1,2 Diester Impurity (NMT 0.05%)” value (25° C./60% RH, 6 M) was 0.005% and the “1,3 Diester Impurity (NMT 0.05%)” value (25° C./60% RH, 6 M) was 0.009%. For the same molecule, the Acid value (25° C./60% RH, 6 M) was 0.27 mg KOH/gm, the Triheptanoin purity (25° C./60% RH, 6 M) was 99.81% and the “1,2 Diester Impurity (NMT 0.05%)” value [2] was 0.003%. The “1,3 Diester Impurity (NMT 0.05%)” value [2] was 0.004%, the Triheptanoin purity [2] was 99.82% and the “1,2-Diester and 1,3-Diester impurities during the storage” value [3] was “not increasing”. For the same molecule, the “assay potency of triheptanoin during the storage” value [3] was “maintained”, the “purity of triheptanoin during storage as measured by GC and/or HPLC” value [3] was “greater than 99.7%” and the “1,2 Diester Impurity (NMT 0.05%)” value (40° C./75% RH, 1 M) was 0.005%. The “1,3 Diester Impurity (NMT 0.05%)” value (40° C./75% RH, 1 M) was 0.003%, the Acid value (40° C./75% RH, 1 M) was 0.24 mg KOH/gm and the Triheptanoin purity (40° C./75% RH, 1 M) was 99.83%. For the same molecule, the “1,2 Diester Impurity (NMT 0.05%)” value [4] was 0.004%, the “1,3 Diester Impurity (NMT 0.05%)” value [4] was 0.004% and the Triheptanoin purity [4] was 99.82%. For the same molecule, the “1,2 Diester Impurity (NMT 0.05%)” value (40° C./75% RH, 2 M) was 0.008%, the “1,3 Diester Impurity (NMT 0.05%)” value (40° C./75% RH, 2 M) was 0.005% and the Acid value (40° C./75% RH, 2 M) was 0.24 mg KOH/gm. The Triheptanoin purity (40° C./75% RH, 2 M) was 99.78%, the “1,2 Diester Impurity (NMT 0.05%)” value [5] was 0.006% and the “1,3 Diester Impurity (NMT 0.05%)” value [5] was 0.003%. For the same molecule, the Acid value [5] was 0.25 mg KOH/gm, the Triheptanoin purity [5] was 99.81% and the “1,2 Diester Impurity (NMT 0.05%)” value (40° C./75% RH, 3 M) was 0.013%. The “1,3 Diester Impurity (NMT 0.05%)” value (40° C./75% RH, 3 M) was 0.007%, the Acid value (40° C./75% RH, 3 M) was 0.24 mg KOH/gm and the Triheptanoin purity (40° C./75% RH, 3 M) was 99.82%. The “1,2 Diester Impurity (NMT 0.05%)” value [6] was 0.006%, the “1,3 Diester Impurity (NMT 0.05%)” value [6] was 0.005% and the Acid value [6] was 0.23 mg KOH/gm. The “1,2 Diester Impurity (NMT 0.05%)” value (40° C./75% RH, 6 M) was 0.018%, the “1,3 Diester Impurity (NMT 0.05%)” value (40° C./75% RH, 6 M) was 0.015% and the Acid value (40° C./75% RH, 6 M) was 0.26 mg KOH/gm. For the same molecule, the Triheptanoin purity (40° C./75% RH, 6 M) was 99.74%, the “1,2 Diester Impurity (NMT 0.05%)” value [7] was 0.011% and the “1,3 Diester Impurity (NMT 0.05%)” value [7] was 0.014%. For the same molecule, the Acid value [7] was 0.29 mg KOH/gm, the Triheptanoin purity [7] was 99.81% and the “1,2 Diester Impurity (NMT 0.05%)” value (50° C., 1 M) was 0.008%. The “1,3 Diester Impurity (NMT 0.05%)” value (50° C., 1 M) was 0.005%, the Acid value (50° C., 1 M) was 0.24 mg KOH/gm and the Triheptanoin purity (50° C., 1 M) was 99.83%. For the same molecule, the “1,2 Diester Impurity (NMT 0.05%)” value [8] was 0.005%, the “1,3 Diester Impurity (NMT 0.05%)” value [8] was 0.004% and the Triheptanoin purity [8] was 99.81%. The “1,2 Diester Impurity (NMT 0.05%)” value (50° C., 2 M) was 0.014%, the “1,3 Diester Impurity (NMT 0.05%)” value (50° C., 2 M) was 0.010% and the Acid value (50° C., 2 M) was 0.24 mg KOH/gm. For the same molecule, the Triheptanoin purity (50° C., 2 M) was 99.76%, the “1,2 Diester Impurity (NMT 0.05%)” value [9] was 0.008% and the “1,3 Diester Impurity (NMT 0.05%)” value [9] was 0.007%. The Acid value [9] was 0.25 mg KOH/gm, the Triheptanoin purity [9] was 99.78% and the “1,2 Diester Impurity (NMT 0.05%)” value (50° C., 3 M) was 0.014%. For the same molecule, the “1,3 Diester Impurity (NMT 0.05%)” value (50° C., 3 M) was 0.012%, the Acid value (50° C., 3 M) was 0.25 mg KOH/gm and the Triheptanoin purity (50° C., 3 M) was 99.80%. For the same molecule, the “1,2 Diester Impurity (NMT 0.05%)” value [10] was 0.010%, the “1,3 Diester Impurity (NMT 0.05%)” value [10] was 0.010% and the Acid value [10] was 0.24 mg KOH/gm. For the same molecule, the Triheptanoin purity [10] was 99.83%, the “1,2 Diester Impurity (NMT 0.05%)” value (Initial) was 0.004% and the “1,3 Diester Impurity (NMT 0.05%)” value (Initial) was 0.002%. The Acid value (Initial) was 0.21 mg KOH/gm, the Triheptanoin purity (Initial) was 99.76% and the “1,2 Diester Impurity (NMT 0.05%)” value (Initial, listed as Example 17) was 0.003%. The Triheptanoin purity (Initial, listed as Example 17) was 99.77%.
